The text below walks through data of patent US6632829B2, “Sulfonamides and derivatives thereof that modulate the activity of endothelin” (Texas Biotechnology Corp., priority 1996, dated 2003).

pIC50: −log10 of the molar value.

The target of one assay is T1, human ETA receptors (Homo sapiens, UniProt P25101).
T1 construct: endogenous in cells; host or cells: TE 671 cells (ATCC HTB 139), membrane preparation
T1 sequence (P25101 21-427): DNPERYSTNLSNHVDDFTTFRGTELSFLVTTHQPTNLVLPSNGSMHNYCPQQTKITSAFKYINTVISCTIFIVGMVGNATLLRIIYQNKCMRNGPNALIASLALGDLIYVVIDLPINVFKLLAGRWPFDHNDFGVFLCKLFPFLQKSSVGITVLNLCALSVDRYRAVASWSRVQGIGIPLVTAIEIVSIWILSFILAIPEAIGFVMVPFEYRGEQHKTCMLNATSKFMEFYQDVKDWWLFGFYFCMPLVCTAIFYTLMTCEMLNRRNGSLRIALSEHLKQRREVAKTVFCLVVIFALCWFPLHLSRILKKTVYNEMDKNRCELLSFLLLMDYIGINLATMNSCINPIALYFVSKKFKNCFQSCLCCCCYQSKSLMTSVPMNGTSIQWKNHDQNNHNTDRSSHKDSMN
The assay can be described thus: Endothelin binding inhibition, Binding Test #1: competition with 125I-ET-1 for ETA receptors on TE 671 cell membranes. Here is the method: (§1) Cells from multiple flasks were collected by scraping, pooled and centrifuged for 10 min at 190×g. The cells were resuspended in phosphate buffered saline (PBS) containing 10 mM EDTA using a Tenbroeck homogenizer. The suspension was centrifuged at 4° C. at 57,800×g for 15 min, the pellet was resuspended in 5 mL of buffer A (5 mM HEPES buffer, pH 7.4 containing aprotinin (100 KIU/mL)) and then frozen and thawed once. 5 mL of Buffer B (5 mM HEPES Buffer, pH 7.4 containing 10 mM MnCl2 and 0.001% deoxyribonuclease Type 1) was added, the suspension mixed by inversion and then incubated at 37° C. for 30 minutes. The mixture was centrifuged at 57,800×g as described above, the pellet washed twice with buffer A and then resuspended in buffer C (30 mM HEPES buffer, pH 7.4 containing aprotinin (100 KIU/mL) to give a final protein concentration of 2 mg/mL and stored at −70° C. until use.
The membrane suspension (50 μL), containing up to 8 μg of membrane protein, was added to each of (A), (B), or (C). […] Alternatively, the incubation was conducted at 24° C.
The supernatant, containing unbound radioactivity, was decanted and the pellet counted on a Genesys multiwell gamma counter. The degree of inhibition of binding (D) was calculated according to the following equation: [formula]
Each test was generally performed in triplicate.

In another assay the target is T2, human ETB receptor (Homo sapiens, UniProt P24530).
T2 construct: expressed in transfected cells; host or cells: COS7 cells
T2 sequence (P24530 27-442): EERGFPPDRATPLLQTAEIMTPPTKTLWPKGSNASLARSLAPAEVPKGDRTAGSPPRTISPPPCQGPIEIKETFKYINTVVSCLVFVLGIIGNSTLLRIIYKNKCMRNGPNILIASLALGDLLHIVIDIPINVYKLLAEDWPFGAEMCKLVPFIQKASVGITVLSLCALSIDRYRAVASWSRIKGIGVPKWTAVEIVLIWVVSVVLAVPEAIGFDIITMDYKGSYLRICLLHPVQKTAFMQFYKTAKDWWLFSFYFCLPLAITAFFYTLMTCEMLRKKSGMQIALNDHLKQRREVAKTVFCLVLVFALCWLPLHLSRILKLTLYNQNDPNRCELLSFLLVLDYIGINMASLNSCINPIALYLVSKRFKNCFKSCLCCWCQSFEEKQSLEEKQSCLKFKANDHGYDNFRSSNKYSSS
The assay can be described thus: Endothelin binding inhibition, Binding Test #2: competition with 125I-ET-1 for ETB receptors on transfected COS7 cell membranes.
Text: Compounds that are potential endothelin antagonists are identified by testing their ability to compete with ^125I-labeled ET-1 for binding to human ETA receptors or ETB receptors present on isolated cell membranes. The effectiveness of the test compound as an antagonist or agonist of the biological tissue response of endothelin can also be assessed by measuring the effect on endothelin induced contraction of isolated rat thoracic aortic rings. The ability of the compounds to act as antagonists or agonists for ETB receptors can be assess by testing the ability of the compounds are to inhibit endothelin-1 induced prostacyclin release from cultured bovine aortic endothelial cells.
COS7 cells were transfected with DNA encoding the ETB receptor, The resulting cells, which express the human ETB receptor, were grown to confluence in T-150 flasks. Membrane was prepared as described above. The binding assay was performed as described above using the membrane preparation diluted with binding buffer to a concentration of 1 μg/50 μL.
as §1, with “Briefly, the COS7 cells, described above, that had been transfected with DNA encoding the ETB receptor and express the human ETB receptor on their surfaces were grown to confluence in T-175 flasks. Cells” for “Cells”, “C.” for “C. at”, “once. Five” for “once. 5”, “2 mg/mL.” for “2 mg/mL and stored at −70° C. until use.”
The binding assay was performed as described above using the membrane preparation diluted to give 1 μg/50 μL of binding buffer.

[1] abbreviates: incubation at 24° C. (values marked †).
Setting [2] is: incubation at 4° C. (values without †).

With `Cc1noc(NS(=O)(=O)c2sccc2-c2ccc3c(c2)OCO3)c1Br` [N-(4-bromo-3-methyl-5-isoxazolyl)-3-[(3,4-methylenedioxy)phenyl]thiophene-2-sulfonamide], the pIC50 on human ETA receptors (setting [1]) was 6.30; on human ETB receptor (setting [1]) it was 4.10.
As to `Cc1cc(C)c(NC(=O)c2sccc2S(=O)(=O)Nc2onc(C)c2Cl)c(C)c1` [N-(4-chloro-3-methyl-5-isoxazolyl)-2-(2,4,6-trimethylphenylaminocarbonyl)thiophene-3-sulfonamide], the values for the pIC50 on human ETA receptors (setting [1]) and at human ETB receptor (setting [1]) were 8.80 and 4.95, respectively.
Consider `Cc1noc(NS(=O)(=O)c2ccsc2COc2ccc3c(c2Cl)OCO3)c1Br` [N-(4-bromo-3-methyl-5-isoxazolyl)-2-[(2-chloro-3,4-methylenedioxy)phenoxymethyl]thiophene-3-sulfonamide], for which the pIC50 at human ETA receptors (setting [1]) is 4.89; on human ETB receptor (setting [1]) it was 6.12.
As to `Cc1noc(NS(=O)(=O)c2sccc2CC=Cc2cc3c(cc2COC2CCCCO2)OCO3)c1Br` (centres unmarked) [N-(4-bromo-3-methyl-5-isoxazolyl)-3-{2-[(tetrahydro-4H-pyran-2-yloxy)methyl]-4,5-(methylenedioxy)cinnamyl}thiophene-2-sulfonamide], the figures for the pIC50 at human ETA receptors (setting [1]) and at human ETB receptor (setting [2]) were 7.01 and 5.38, respectively.
Regarding `COC(=O)c1sccc1S(=O)(=O)Nc1onc(C)c1Cl` [N-(4-chloro-3-methyl-5-isoxazolyl)-2-methoxycarbonylthiophene-3-sulfonamide], the pIC50 at human ETA receptors (setting [2]) was 6.20; at human ETB receptor (setting [2]), 4.27.
Take `CCCc1cc2c(cc1OCc1ccsc1S(=O)(=O)Nc1onc(C)c1Br)OCO2` [N-(4-bromo-3-methyl-5-isoxazolyl)-3-{[2-propyl-4,5-(methylenedioxy)phenoxy]methyl}thiophene-2-sulfonamide]: the pIC50 on human ETA receptors (setting [1]) was about 6.70; on human ETB receptor (setting [1]), about 5.82.
The corresponding values for `Cc1cc(C)c(NC(=O)c2sccc2S(=O)(=O)Nc2noc(C)c2Cl)c(C)c1CO` [N-(4-chloro-5-methyl-3-isoxazolyl)-2-(3-hydroxymethyl-2,4,6-trimethylphenylaminocarbonyl)thiophene-3-sulfonamide] are 9.06 and 5.51.
On to `Cc1ccc(OC(=O)c2sccc2S(=O)(=O)Nc2onc(C)c2Cl)cc1` [N-(4-chloro-3-methyl-5-isoxazolyl)-2-[(4-methylphenoxy)carbonyl]thiophene-3-sulfonamide], for which, on human ETA receptors (setting [1]), the pIC50 is 5.49. Besides, the inhibition at 100 µM on human ETB receptor (read-out: ETB % inhibition @ 100 μM, @ 100 μM, incubation at 24° C.) amounted to 43%.
Turning to `Cc1ccc(OC(=O)c2sccc2S(=O)(=O)Nc2onc(C)c2Cl)c(C)c1` [N-(4-chloro-3-methyl-5-isoxazolyl)-2-[(2,4-dimethylphenoxy)carbonyl]thiophene-3-sulfonamide], the pIC50 at human ETA receptors (setting [1]) is 6.19; at human ETB receptor (setting [1]) it was 4.16.
As for `COc1ccccc1-c1ccsc1S(=O)(=O)Nc1onc(C)c1Br` [N-(4-bromo-3-methyl-5-isoxazolyl)-3-(2-methoxyphenyl)thiophene-2-sulfonamide], the pIC50 on human ETA receptors (setting [1]) was 5.77; on human ETB receptor (setting [1]), 4.23.
Regarding `Cc1noc(NS(=O)(=O)c2ccsc2C(O)c2ccccc2)c1Br` (stereo not drawn) [N-(4-bromo-3-methyl-5-isoxazolyl)-2-(α-hydroxybenzyl)thiophene-3-sulfonamide], the pIC50 was 6.47 on human ETA receptors (setting [2]) and 5.03 at human ETB receptor (setting [2]).
Consider `Cc1ccc(C=CCc2ccsc2S(=O)(=O)Nc2onc(C)c2Br)c(C)c1` [N-(4-bromo-3-methyl-5-isoxazolyl)-3-(2,4-dimethylcinnamyl)thiophene-2-sulfonamide], for which the figures for the pIC50 on human ETA receptors (setting [1]) and on human ETB receptor (setting [1]) were 6.74 and 5.53, respectively.
As to `CCCc1cc2c(cc1OCc1sccc1S(=O)(=O)Nc1onc(C)c1Br)OCO2` [N-(4-bromo-3-methyl-5-isoxazolyl)-2-{[4,5-(methylenedioxy)-2-propylphenoxy]methyl}thiophene-3-sulfonamide], the results for the negative logarithm of the IC50 (pIC50) on human ETA receptors (setting [1]) and at human ETB receptor (setting [1]) were 6.97 and 6.39, respectively.
On the same counts, the results for `Cc1cc(C)c(NC(=O)c2sccc2S(=O)(=O)Nc2onc(C)c2C)c(C)c1CO` [N-(3,4-dimethyl-5-isoxazolyl)-2-(3-hydroxymethyl-2,4,6-trimethylphenylaminocarbonyl)thiophene-3-sulfonamide] are 8.95 and 4.47.
The corresponding values for `Cc1ccc(CCc2ccsc2S(=O)(=O)Nc2onc(C)c2Br)c(C)c1` [N-(4-bromo-3-methyl-5-isoxazolyl)-3-(2,4-dimethylphenethyl)thiophene-2-sulfonamide] are 7.00 and 5.37.
The corresponding values for `Cc1noc(NS(=O)(=O)c2ccsc2C(=O)Nc2cc3c(cc2CCO)OCO3)c1Cl` [N-(4-chloro-3-methyl-5-isoxazolyl)-2-[3,4-(methylenedioxy)-6-(2-hydroxyethyl)phenylaminocarbonyl]thiophene-3-sulfonamide] are 8.25 and 4.77.
Regarding “N-2-[3,4-(methylenedioxy)phenylacetyl]thiophene-3-sulfonamide”, the pIC50 at human ETA receptors (setting [1]) is 5.74; on human ETB receptor (setting [1]), 4.49.
The corresponding values for `Cc1noc(NS(=O)(=O)c2ccsc2C(=O)OCCc2ccc3c(c2)OCO3)c1Cl` [N-(4-chloro-3-methy-5-isoxazolyl)-2-[2-(3,4-methylenedioxyphenyl)]ethoxycarbonyl-3-sulfonamide] are 6.64 and 5.21.
The corresponding values for `Cc1cccc(OC(=O)c2sccc2S(=O)(=O)Nc2onc(C)c2Br)c1` [N-(4-bromo-3-methyl-5-isoxazolyl)-2-[(3-methylphenoxy)carbonyl]thiophene-3-sulfonamide] are 5.92 and 3.95.
For `Cc1noc(NS(=O)(=O)c2ccsc2C(=O)Nc2ccc3c(c2)OCO3)c1Br` [N-(4-bromo-3-methyl-5-isoxazolyl)-2-[(3,4-methylenedioxyphenyl)aminocarbonyl]thiophene-3-sulfonamide], the pIC50 is 7.77 at human ETA receptors (setting [1]) and 5.01 at human ETB receptor (setting [1]).
Consider `Cc1ccc(NC(=O)c2sccc2S(=O)(=O)Nc2onc(C)c2C)cc1` [N-(3,4-dimethyl-5-isoxazolyl)-2-[(4-methylphenyl)aminocarbonyl]thiophene-3-sulfonamide], for which the figures for the pIC50 on human ETA receptors (setting [2]) and at human ETB receptor (setting [2]) were 8.47 and 4.95, respectively.
On to `Cc1noc(NS(=O)(=O)c2c(-c3ccccc3C#N)sc3ccccc23)c1Cl` [N-(4-chloro-3-methyl-5-isoxazolyl)-2-[2-(cyano)phenyl]benzo[b]thiophene-3-sulfonamide], for which the pIC50 was 5.20 at human ETA receptors (setting [1]) and 5.05 on human ETB receptor (setting [1]).
